Test system: SW1088
Experiment: MTT test, cytotoxic activity on non-clonogenic cell lines
Type: cell-based
Conditions: Homo sapiens, 10^−5 M, 72 hours of incubation, control condition = 100%, mean value, read-out: mean optical density as percentage of control, SW1088
Outline: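 Human astrocytoma SW1088 cells seeded, grown 24 h at 37° C, 5% CO2, then exposed to compounds at 10^−5 to 10^−10 M versus solvent control. Viability by MTT reduction: 3 h MTT incubation, formazan dissolved in DMSO and read by spectrophotometry.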
For `COc1ccc(-c2cn(C)c3cc(OC)cc(N4CCCCC4)c3c2=O)cc1` [CRL8425, 7-Methoxy-3-(4-methoxyphenyl)-1-methyl-5-piperidino-1,4-dihydro-4-quinolinone], the viability at 10 µM was 85.4%. Work on `COc1ccc(-c2cn(C)c3cc(OC)cc(N4CCCC4)c3c2=O)cc1` [CRL8434, 7-Methoxy-3-(4-methoxyphenyl)-1-methyl-5-pyrrolidino-1,4-dihydro-4-quinolinone] yielded a viability at 10 µM of 99.9%. `COc1ccc(-c2cn(C)c3cc(OC)cc(N4CCOCC4)c3c2=O)cc1` [CRL8435, 7-Methoxy-3-(4-methoxyphenyl)-1-methyl-5-morpholino-1,4-dihydro-4-quinolinone] showed a viability at 10 µM of 97.3%.

Test system: J82
Experiment: as above
Type: cell-based
Conditions: Homo sapiens, 10^−5 M, 72 hours of incubation, control condition = 100%, mean value, read-out: mean optical density as percentage of control, J82
Outline: (§1)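 Human bladder cancer lines were seeded at 20 000–50 000 cells/ml and, after 24 h, exposed to compounds at 10^−5 to 10^−10 M against a solvent control. Formazan was dissolved in DMSO and viability was read by spectrophotometric optical density.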
With `COc1ccc(-c2cn(C)c3cc(OC)cc(N4CCCCC4)c3c2=O)cc1` [CRL8425, 7-Methoxy-3-(4-methoxyphenyl)-1-methyl-5-piperidino-1,4-dihydro-4-quinolinone] the viability at 10 µM was 71.9%. Compound `COc1ccc(-c2cn(C)c3cc(OC)cc(N4CCCC4)c3c2=O)cc1` [CRL8434, 7-Methoxy-3-(4-methoxyphenyl)-1-methyl-5-pyrrolidino-1,4-dihydro-4-quinolinone] has a viability at 10 µM of 99.3%. Work on `COc1ccc(-c2cn(C)c3cc(OC)cc(N4CCOCC4)c3c2=O)cc1` [CRL8435, 7-Methoxy-3-(4-methoxyphenyl)-1-methyl-5-morpholino-1,4-dihydro-4-quinolinone] yielded a viability at 10 µM of 100%.

Test system: T24
Experiment: as above
Type: cell-based
Conditions: Homo sapiens, T-24; 10^−5 M, 72 hours of incubation, control condition = 100%, mean value; read-out: mean optical density as percentage of control, T24
Outline: as §1
`COc1ccc(-c2cn(C)c3cc(OC)cc(N4CCCCC4)c3c2=O)cc1` [CRL8425, 7-Methoxy-3-(4-methoxyphenyl)-1-methyl-5-piperidino-1,4-dihydro-4-quinolinone] showed a viability at 10 µM of 98.2%. Compound `COc1ccc(-c2cn(C)c3cc(OC)cc(N4CCCC4)c3c2=O)cc1` [CRL8434, 7-Methoxy-3-(4-methoxyphenyl)-1-methyl-5-pyrrolidino-1,4-dihydro-4-quinolinone] has a viability at 10 µM of 98.7%. Work on `COc1ccc(-c2cn(C)c3cc(OC)cc(N4CCOCC4)c3c2=O)cc1` [CRL8435, 7-Methoxy-3-(4-methoxyphenyl)-1-methyl-5-morpholino-1,4-dihydro-4-quinolinone] yielded a viability at 10 µM of 89.4%.

Test system: U-373MG
Experiment: as above
Type: cell-based
Conditions: Homo sapiens, U373 MG; 10^−5 M, 72 hours of incubation, control condition = 100%, mean value; read-out: mean optical density as percentage of control, U-373MG
Outline: (§2)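 Human cancer lines seeded at 20 000–50 000 cells/ml, allowed 24 h to attach, then exposed to compounds at 10^−5 to 10^−10 M versus solvent control.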
`COc1ccc(-c2cn(C)c3cc(OC)cc(N4CCCCC4)c3c2=O)cc1` [CRL8425, 7-Methoxy-3-(4-methoxyphenyl)-1-methyl-5-piperidino-1,4-dihydro-4-quinolinone] showed a viability at 10 µM of 82.6%. For `COc1ccc(-c2cn(C)c3cc(OC)cc(N4CCCC4)c3c2=O)cc1` [CRL8434, 7-Methoxy-3-(4-methoxyphenyl)-1-methyl-5-pyrrolidino-1,4-dihydro-4-quinolinone], the viability at 10 µM was 92.2%. `COc1ccc(-c2cn(C)c3cc(OC)cc(N4CCOCC4)c3c2=O)cc1` [CRL8435, 7-Methoxy-3-(4-methoxyphenyl)-1-methyl-5-morpholino-1,4-dihydro-4-quinolinone] showed a viability at 10 µM of 85%.

Test system: HCT-15
Experiment: as above
Type: cell-based
Conditions: Homo sapiens, 10^−5 M, 72 hours of incubation, control condition = 100%, mean value, read-out: mean optical density as percentage of control, HCT-16
Outline: as §2
`COc1ccc(-c2cn(C)c3cc(OC)cc(N4CCCCC4)c3c2=O)cc1` [CRL8425, 7-Methoxy-3-(4-methoxyphenyl)-1-methyl-5-piperidino-1,4-dihydro-4-quinolinone] showed a viability at 10 µM of 78.9%. `COc1ccc(-c2cn(C)c3cc(OC)cc(N4CCCC4)c3c2=O)cc1` [CRL8434, 7-Methoxy-3-(4-methoxyphenyl)-1-methyl-5-pyrrolidino-1,4-dihydro-4-quinolinone] gave a viability at 10 µM of 101%. Compound `COc1ccc(-c2cn(C)c3cc(OC)cc(N4CCOCC4)c3c2=O)cc1` [CRL8435, 7-Methoxy-3-(4-methoxyphenyl)-1-methyl-5-morpholino-1,4-dihydro-4-quinolinone] has a viability at 10 µM of 101%.

Test system: A-427
Experiment: as above
Type: cell-based
Conditions: Homo sapiens, 10^−5 M, 72 hours of incubation, control condition = 100%, mean value, read-out: mean optical density as percentage of control, A-427
Outline: as §2
`COc1ccc(-c2cn(C)c3cc(OC)cc(N4CCCCC4)c3c2=O)cc1` [CRL8425, 7-Methoxy-3-(4-methoxyphenyl)-1-methyl-5-piperidino-1,4-dihydro-4-quinolinone] gave a viability at 10 µM of 81.9%. For `COc1ccc(-c2cn(C)c3cc(OC)cc(N4CCCC4)c3c2=O)cc1` [CRL8434, 7-Methoxy-3-(4-methoxyphenyl)-1-methyl-5-pyrrolidino-1,4-dihydro-4-quinolinone], the viability at 10 µM was 110%. `COc1ccc(-c2cn(C)c3cc(OC)cc(N4CCOCC4)c3c2=O)cc1` [CRL8435, 7-Methoxy-3-(4-methoxyphenyl)-1-methyl-5-morpholino-1,4-dihydro-4-quinolinone] showed a viability at 10 µM of 115%.

Test system: U-87MG
Experiment: as above
Type: cell-based
Conditions: Homo sapiens, U-87 MG; 10^−5 M, 72 hours of incubation, control condition = 100%, mean value; read-out: mean optical density as percentage of control, U-87MG
Outline: as §2
Work on `COc1ccc(-c2cn(C)c3cc(OC)cc(N4CCCCC4)c3c2=O)cc1` [CRL8425, 7-Methoxy-3-(4-methoxyphenyl)-1-methyl-5-piperidino-1,4-dihydro-4-quinolinone] yielded a viability at 10 µM of 92.6%. Compound `COc1ccc(-c2cn(C)c3cc(OC)cc(N4CCCC4)c3c2=O)cc1` [CRL8434, 7-Methoxy-3-(4-methoxyphenyl)-1-methyl-5-pyrrolidino-1,4-dihydro-4-quinolinone] has a viability at 10 µM of 89.7%. With `COc1ccc(-c2cn(C)c3cc(OC)cc(N4CCOCC4)c3c2=O)cc1` [CRL8435, 7-Methoxy-3-(4-methoxyphenyl)-1-methyl-5-morpholino-1,4-dihydro-4-quinolinone] the viability at 10 µM was 85%.

Test system: A549
Experiment: as above
Type: cell-based
Conditions: Homo sapiens, 10^−5 M, 72 hours of incubation, control condition = 100%, mean value, read-out: mean optical density as percentage of control, A549
Outline: as §2
With `COc1ccc(-c2cn(C)c3cc(OC)cc(N4CCCCC4)c3c2=O)cc1` [CRL8425, 7-Methoxy-3-(4-methoxyphenyl)-1-methyl-5-piperidino-1,4-dihydro-4-quinolinone] the viability at 10 µM was 80.2%. `COc1ccc(-c2cn(C)c3cc(OC)cc(N4CCCC4)c3c2=O)cc1` [CRL8434, 7-Methoxy-3-(4-methoxyphenyl)-1-methyl-5-pyrrolidino-1,4-dihydro-4-quinolinone] gave a viability at 10 µM of 99%. `COc1ccc(-c2cn(C)c3cc(OC)cc(N4CCOCC4)c3c2=O)cc1` [CRL8435, 7-Methoxy-3-(4-methoxyphenyl)-1-methyl-5-morpholino-1,4-dihydro-4-quinolinone] gave a viability at 10 µM of 96.7%.

Test system: PC-3
Experiment: as above
Type: cell-based
Conditions: Homo sapiens, 10^−5 M, 72 hours of incubation, control condition = 100%, mean value, read-out: mean optical density as percentage of control, PC-3
Outline: as §2
Compound `COc1ccc(-c2cn(C)c3cc(OC)cc(N4CCCCC4)c3c2=O)cc1` [CRL8425, 7-Methoxy-3-(4-methoxyphenyl)-1-methyl-5-piperidino-1,4-dihydro-4-quinolinone] has a viability at 10 µM of 88.2%. Work on `COc1ccc(-c2cn(C)c3cc(OC)cc(N4CCCC4)c3c2=O)cc1` [CRL8434, 7-Methoxy-3-(4-methoxyphenyl)-1-methyl-5-pyrrolidino-1,4-dihydro-4-quinolinone] yielded a viability at 10 µM of 113%. Compound `COc1ccc(-c2cn(C)c3cc(OC)cc(N4CCOCC4)c3c2=O)cc1` [CRL8435, 7-Methoxy-3-(4-methoxyphenyl)-1-methyl-5-morpholino-1,4-dihydro-4-quinolinone] has a viability at 10 µM of 105%.

Test system: T-47D
Experiment: as above
Type: cell-based
Conditions: Homo sapiens, T47D; 10^−5 M, 72 hours of incubation, control condition = 100%, mean value; read-out: mean optical density as percentage of control, T-47D
Outline: as §2
`COc1ccc(-c2cn(C)c3cc(OC)cc(N4CCCCC4)c3c2=O)cc1` [CRL8425, 7-Methoxy-3-(4-methoxyphenyl)-1-methyl-5-piperidino-1,4-dihydro-4-quinolinone] showed a viability at 10 µM of 97.3%. Compound `COc1ccc(-c2cn(C)c3cc(OC)cc(N4CCCC4)c3c2=O)cc1` [CRL8434, 7-Methoxy-3-(4-methoxyphenyl)-1-methyl-5-pyrrolidino-1,4-dihydro-4-quinolinone] has a viability at 10 µM of 85.8%. With `COc1ccc(-c2cn(C)c3cc(OC)cc(N4CCOCC4)c3c2=O)cc1` [CRL8435, 7-Methoxy-3-(4-methoxyphenyl)-1-methyl-5-morpholino-1,4-dihydro-4-quinolinone] the viability at 10 µM was 95.7%.

Test system: LoVo
Experiment: as above
Type: cell-based
Conditions: Homo sapiens, 10^−5 M, 72 hours of incubation, control condition = 100%, mean value, read-out: mean optical density as percentage of control, LoVo
Outline: as §2
With `COc1ccc(-c2cn(C)c3cc(OC)cc(N4CCCCC4)c3c2=O)cc1` [CRL8425, 7-Methoxy-3-(4-methoxyphenyl)-1-methyl-5-piperidino-1,4-dihydro-4-quinolinone] the viability at 10 µM was 71%. Compound `COc1ccc(-c2cn(C)c3cc(OC)cc(N4CCCC4)c3c2=O)cc1` [CRL8434, 7-Methoxy-3-(4-methoxyphenyl)-1-methyl-5-pyrrolidino-1,4-dihydro-4-quinolinone] has a viability at 10 µM of 106%. Work on `COc1ccc(-c2cn(C)c3cc(OC)cc(N4CCOCC4)c3c2=O)cc1` [CRL8435, 7-Methoxy-3-(4-methoxyphenyl)-1-methyl-5-morpholino-1,4-dihydro-4-quinolinone] yielded a viability at 10 µM of 106%.

Test system: MCF7
Experiment: as above
Type: cell-based
Conditions: Homo sapiens, 10^−5 M, 72 hours of incubation, control condition = 100%, mean value, read-out: mean optical density as percentage of control, MCF7
Outline: as §2
`COc1ccc(-c2cn(C)c3cc(OC)cc(N4CCCCC4)c3c2=O)cc1` [CRL8425, 7-Methoxy-3-(4-methoxyphenyl)-1-methyl-5-piperidino-1,4-dihydro-4-quinolinone] gave a viability at 10 µM of 102%. Compound `COc1ccc(-c2cn(C)c3cc(OC)cc(N4CCCC4)c3c2=O)cc1` [CRL8434, 7-Methoxy-3-(4-methoxyphenyl)-1-methyl-5-pyrrolidino-1,4-dihydro-4-quinolinone] has a viability at 10 µM of 96.2%. In the case of `COc1ccc(-c2cn(C)c3cc(OC)cc(N4CCOCC4)c3c2=O)cc1` [CRL8435, 7-Methoxy-3-(4-methoxyphenyl)-1-methyl-5-morpholino-1,4-dihydro-4-quinolinone], the viability at 10 µM was 93.6%.

Test system: not listed separately
Experiment: Determination of the maximum tolerated dose (MTD)
Conditions: B6D2F1/Jico, mouse, in vivo, ip; single intraperitoneal administration, doses 2.5 to 160 mg/kg, survival over 14 days
Outline: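 Mice were 4- to 6-week-old B6D2F1/Jico. They received a single intraperitoneal dose of 2.5 to 160 mg/kg, and survival and body weight were followed for 14 days. MTD is given in mg/kg and is capped at 160 mg/kg by default.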
For `COc1ccc(-c2cn(C)c3cc(OC)cc(N4CCCCC4)c3c2=O)cc1` [CRL8425, 7-Methoxy-3-(4-methoxyphenyl)-1-methyl-5-piperidino-1,4-dihydro-4-quinolinone], the MTD at 14 day was over 160 mg/kg. Work on `COc1ccc(-c2cn(C)c3cc(OC)cc(N4CCCC4)c3c2=O)cc1` [CRL8434, 7-Methoxy-3-(4-methoxyphenyl)-1-methyl-5-pyrrolidino-1,4-dihydro-4-quinolinone] yielded an MTD at 14 day of over 160 mg/kg. For `COc1ccc(-c2cn(C)c3cc(OC)cc(N4CCOCC4)c3c2=O)cc1` [CRL8435, 7-Methoxy-3-(4-methoxyphenyl)-1-methyl-5-morpholino-1,4-dihydro-4-quinolinone], the MTD at 14 day was over 160 mg/kg.

— US6645983B1, “Pharmaceutical compositions comprising 4-quinolones for treating cancers” (Laboratoire L. Lafon, priority 1999, dated 2003)
